Type in all cases: in vivo
The subject of data set [1] is female diabetic dbdb-mice. Briefly: 4 weeks of treatment: glucose, HbA1c and oral glucose tolerance in female diabetic dbdb-mice (method 4). The settings on record: 3 and 10 μg/kg s.c. once daily. As for the experimental part:
8 week old, female diabetic dbdb-mice of mean non-fasted glucose value of 14.5 mmol/l and a body weight of 37-40 g were used. Mice were individually marked and were adapted to housing conditions for at least one week. 7 days prior to study start, baseline values for non-fasted glucose and HbA1c were determined, 5 days prior to study start, mice were assigned to groups and cages (5 mice per cage, 10 per group) according to their HbA1c values to ensure even distribution of lower and higher values between groups (stratification).
Mice were treated for 4 weeks, by once daily subcutaneous administration 3 hours prior to the dark phase (6 pm to 6 am). Blood samples from a tail tip incision were obtained for HbA1c on study day 21 and oral glucose tolerance was assessed in the 4th week. Oral glucose tolerance test was done in the morning without prior extra compound administration to majorly assess the effect of chronic treatment and less of acute compound administration. Mice were fasted for 4 hours prior to oral glucose administration (2 g/kg, t=0 min). Blood samples were drawn prior to glucose administration and at 15, 30, 60, 90, 120, and 180 min thereafter. Feed was returned after the last blood sampling. Results are represented as change from baseline, glucose in mmol/l and HbA1c in %.
Statistical analyses are performed with Everstat Version 6.0 based on SAS by 1-way-ANOVA, followed by Dunnett's post-hoc test against vehicle-control. Differences are considered statistically significant at the p<0.05 level.
Female dbdb-mice, received 3 and 10 μg/kg of SEQ ID NO: 11 or phosphate buffered saline (vehicle control) once daily, subcutaneously over four weeks. […] (FIG. 3).

Data set [2] can be described thus: Pharmacokinetic testing in mice, s.c., LC/MS of plasma. The settings on record: mouse, sc, 1 mg/kg s.c. How it is done:
Mice were dosed 1 mg/kg subcutaneously (s.c.).
(§1) Pharmacokinetic profiles were determined as described in Methods.

Data set [3] can be described thus: Pharmacokinetic testing in female Göttinger minipigs, s.c., LC/MS of plasma. The following applies: minipig, sc, Mini pigs, 0.1 mg/kg s.c. How it is done:
as §1

One may read the Cmax as the maximum level reached in the sampled fluid or tissue. As usually defined, the half-life is the time needed for the level to fall by half in the phase considered. Low readings indicate rapid decline, high ones slow decline.

SMILES strings stand for the structures. *1 amine or outer side, *2 acyl side, *3 side chain or, on linkers, in order; H or OH if unused. Where a SMILES comes first, the peptide text is derived from it. Side-chain parts run from the residue outwards. [ ]: non-standard residue; d: D form. The star is where a group is joined. γGlu = O=C(O)[C@H](CCC(=O)[*:2])N[*:1]; Palmitoyl = CCCCCCCCCCCCCCCC(=O)*; αMeK = C[C@](N)(CCCCN)C(=O)O; Aib = CC(C)(N)C(=O)O

For `CCCCCCCCCCCCCCCC(=O)N[C@@H](CCC(=O)NCCCC[C@H](NC(=O)[C@H](CCC(N)=O)NC(=O)[C@@H](NC(=O)[C@H](CO)NC(=O)[C@H](CC(C)C)NC(=O)[C@H](CC(=O)O)NC(=O)[C@H](CO)NC(=O)[C@@H](NC(=O)[C@H](Cc1ccccc1)NC(=O)[C@@H](NC(=O)CNC(=O)[C@H](CCC(=O)O)NC(=O)C(C)(C)NC(=O)[C@@H](N)Cc1ccc(O)cc1)[C@@H](C)O)[C@@H](C)O)[C@@H](C)CC)C(=O)N[C@@H](CCC(=O)O)C(=O)N[C@@H](CCC(=O)O)C(=O)N[C@@H](CCCNC(=N)N)C(=O)N[C@@H](C)C(=O)N[C@@H](C)C(=O)N[C@@](C)(CCCCN)C(=O)N[C@@H](CCC(=O)O)C(=O)N[C@@H](Cc1ccccc1)C(=O)N[C@H](C(=O)N[C@@H](CCC(=O)O)C(=O)N[C@@H](Cc1c[nH]c2ccccc12)C(=O)N[C@@H](CC(C)C)C(=O)N[C@@H](CCCCN)C(=O)N[C@@H](CC(N)=O)C(=O)N[C@H](C(=O)NCC(=O)N1CCC[C@H]1C(=O)N[C@@H](CO)C(=O)N[C@@H](CO)C(=O)NCC(=O)N[C@@H](C)C(=O)N1CCC[C@H]1C(=O)N1CCC[C@H]1C(=O)N1CCC[C@H]1C(=O)N[C@@H](CO)C(N)=O)[C@@H](C)O)[C@@H](C)CC)C(=O)O` [SEQ ID NO: 11, Y-Aib-E-G-T-F-T-S-D-L-S-I-Q-K(γE-x53)-E-E-R-A-A-(S)MeLys-E-F-I-E-W-L-K-N-T-G-P-S-S-G-A-P-P-P-S-NH2] (H-Y[Aib]EGTFTSDLSIQK([γGlu-Palmitoyl])EERAA[αMeK]EFIEWLKNTGPSSGAPPPS-NH2), in data set [1] (4th week, 2 g/kg oral glucose), the oral glucose tolerance entry is on record as “improved oral glucose tolerance”. Also, the “non-fasted glucose compared to vehicle control” value in data set [1] (four weeks) was “reduced statistically significant”. Also, the “HbA1c compared to vehicle control” value in data set [1] (four weeks, p<0.05) is “prevented an increase of HbA1c in a statistical significant manner”. For the same molecule, in data set [1] (oral glucose tolerance test, p<0.05), the “reduction of AUC under the glucose curve compared to vehicle control” value is “reached statistical significance”. In data set [2], this molecule had a Cmax of 5940 ng/mL and a half-life of 4.3 h. Besides, in data set [3], the Cmax was 302 ng/mL and the half-life was 12.6 h.

The values are drawn from patent US9745360B2 (Sanofi, priority 2012, dated 2017).
